Several values for one entry are separate records, joined by “and”; a condition that tells them apart may be missing. Equal values may be shown once.
System: 186277-243-T-J2-PDC spheroids with HUVEC/MSC, viability
Assay: Anticancer human tumor 186277-243-T-J2-PDC patient-derived colon adenocarcinoma cell line growth inhibition [CLK]
Settings: for viability, T/C: stronger effect = lower value; active = viability on the fitted dose curve at most 10% of control; inactive = the rest
Source text: A high-throughput screen of multi-cell type tumor spheroids was designed to identify active combinations of […] and targeted small molecules. Complex spheroids include a stromal component modeled by human endothelial cells (HUVEC) and fibroblasts modeled by human mesenchymal stem cells (MSCs). The concentration ranges selected for each drug and investigational agent were based upon clinically achievable concentrations if the clinical Cmax of the agent was known.
Compounds. The drugs and investigational agents: cirtuvivint (SM08502; NSC835563), CC-671 (NSC850746), vemurafenib (NSC761431), tapotoclax (NSC804041), sotorasib (NSC818433), adagrasib (NSC831453), MRTX-1133 (NSC836407), BAY2416964 (NSC825713), copanlisib (NSC816437), inavolisib (NSC800729), abemaciclib (NSC768073), osimertinib (NSC779217), entinostat (NSC756642), eltanexor (KPT-8602, NSC794443), venetoclax (NSC766270), ceralasertib (NSC777638), bortezomib (NSC756655), olaparib (NSC753686), talazoparib (NSC767125), alisertib (NSC759677), peposertib (NSC802822), gemcitabine (NSC613327), 5-fluorouracil (NSC19893), SN-38 (NSC673596), oxaliplatin (NSC266046), paclitaxel (NSC125973), and doxorubicin (NSC123127), were obtained from the National Cancer Institute (NCI) Developmental Therapeutics Program Chemical Repository. The FDA-approved anticancer drug set is available from the Developmental Therapeutics Program at https://dtp.cancer.gov/organization/dscb/obtaining/available plates.htm. […] The stock solutions were prepared in dimethyl sulfoxide (DMSO, Sigma-Aldrich, St. Louis, MO, cat. D2650), except for the platinum complexes which were prepared in saline (Quality Biological, Gaithersburg, MD, cat. 114-055-101), at 800-fold the tested concentration and stored at -70 degrees C prior to their use. All drugs and investigational agents were tested over a range starting from a high concentration at or near the clinical Cmax and decreasing in half-log increments. If the clinical Cmax for an agent had not been determined, the highest concentration tested was 10 microM.
Cell Culture. All cells were maintained in an incubator at 37 degrees C and 5% CO2 with 95% humidity. The PDC lines were cultured according to standard operating procedures established by the NCI PDMR. Briefly, all PDCs were thawed and cultured in Matrigel-coated flasks prepared with a working solution of 1X Ham's F-12 nutrient mix, without supplementation (Invitrogen, Waltham, MA, cat. 11765054), 100 U/mL penicillin-streptomycin (Invitrogen, cat. 15140122), and 2.5% Matrigel (Corning Inc., Corning, NY, cat. 354248) for the first three passages. The 947758-054-R-J2-PDC line was cultured in 6B/Colon 1A media, which includes advanced DMEM/F-12 (Thermo Fisher Scientific, cat. 12634028), 10 mM HEPES (Thermo Fisher Scientific, cat. 15630080), 1X GlutaMAX supplement (Thermo Fisher Scientific, cat. 35050061), 0.1 mg/mL primocin (InvivoGen, cat. ant-pm-2), 10% defined fetal bovine serum, heat inactivated (HyClone Laboratories Inc., cat. SH30070.03HI), 1.25 mM N-Acetyl-L-cysteine (Sigma-Aldrich, cat. A9165), 10 mM nicotinamide (Sigma-Aldrich, cat. N0636), 1X B-27 supplement (Thermo Fisher Scientific, cat. 17504044), 1X N-2 supplement (Thermo Fisher Scientific, cat. 17502048), and 10 microM Y-27632 dihydrochloride (Tocris Bioscience, cat. 1254). The 876862-298-R-J1-PDC was cultured in 6E media, which includes all 6B/Colon 1A media components plus 50% L-WRN conditioned media (ATCC, cat. CRL-3276), 50 ng/mL recombinant human EGF recombinant protein (hEGF; Thermo Fisher Scientific, cat. PHG0311), 10 ng/mL recombinant human fibroblast growth factor 10 (hGFG-10; PeproTech, cat. 100-26), 1 ng/mL recombinant human fibroblast growth factor 2 (hFGF-2; PeproTech, cat. 100-18B), and 1 µM prostaglandin E2 (PGE2; Tocris, cat. 2296). The 227483-062-R1-J1-PDC line was cultured in Panc media, containing all 6E components except hFGF-2, with the addition of 500 nM SB-431542 (Selleckchem, cat. S1067) and 10 nM gastrin (Tocris, cat. 3006). […]
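Also: compound exposure lasted seven days before readout.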
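For viability, T/C in this document: 100% = DMSO vehicle control wells.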

CCc1c2c(nc3ccc(O)cc13)-c1cc3c(c(=O)n1C2)COC(=O)[C@]3(O)CC
inactive: viability, T/C (compound 0.00316 µM) 115% and 111% | viability, T/C (compound 0.01 µM) 95.3% and 79.7% | viability, T/C (compound 0.0316 µM) 66.4% and 56.8% | viability, T/C (compound 0.1 µM) 30.3% and 24.5% | viability, T/C (compound 0.316 µM) 26% and 21.8% | viability, T/C (compound 1 µM) 21.6% and 16.9%
53.4 nM and 34.3 nM: IC50 (curve of compound)

NC(=O)C(=Cn1cnc(-c2cc(C(F)(F)F)cc(C(F)(F)F)c2)n1)c1cncnc1 + CN1CCN(c2cc(C(=O)Nc3cc4cc(-c5cnn(C)c5)ccc4cn3)ccn2)CC1
127 nM: IC50 (curve of first compound, second compound 0.0316 µM)
active: viability, T/C (second compound 0.0316 µM, first compound 0.3 µM) 5.69% | viability, T/C (second compound 0.0316 µM, first compound 0.949 µM) 1.85% | viability, T/C (second compound 0.0316 µM, first compound 3 µM) 2.91% | viability, T/C (second compound 0.1 µM, first compound 0.3 µM) 1.94% | viability, T/C (second compound 0.1 µM, first compound 0.949 µM) 0.71% | viability, T/C (second compound 0.1 µM, first compound 3 µM) 1.36% | viability, T/C (second compound 0.316 µM, first compound 0.00949 µM) 9.76% | viability, T/C (second compound 0.316 µM, first compound 0.03 µM) 4.11% | viability, T/C (second compound 0.316 µM, first compound 0.0949 µM) 0.34% | viability, T/C (second compound 0.316 µM, first compound 0.3 µM) 0.6% | viability, T/C (second compound 0.316 µM, first compound 0.949 µM) 0.58% | viability, T/C (second compound 0.316 µM, first compound 3 µM) 0.92% | viability, T/C (second compound 1 µM, first compound 0.00949 µM) 1% | viability, T/C (second compound 1 µM, first compound 0.03 µM) 1.1% | viability, T/C (second compound 1 µM, first compound 0.0949 µM) 0.81% | viability, T/C (second compound 1 µM, first compound 0.3 µM) 0.47% | viability, T/C (second compound 1 µM, first compound 0.949 µM) 0.34% | viability, T/C (second compound 1 µM, first compound 3 µM) 3.14% | viability, T/C (second compound 3.16 µM, first compound 0.00949 µM) 1.66% | viability, T/C (second compound 3.16 µM, first compound 0.03 µM) 1.29% | viability, T/C (second compound 3.16 µM, first compound 0.0949 µM) 1.77% | viability, T/C (second compound 3.16 µM, first compound 0.3 µM) 1.67% | viability, T/C (second compound 3.16 µM, first compound 0.949 µM) 1.12% | viability, T/C (second compound 3.16 µM, first compound 3 µM) 1.92% | viability, T/C (second compound 10 µM, first compound 0.00949 µM) 1.29% | viability, T/C (second compound 10 µM, first compound 0.03 µM) 1.77% | viability, T/C (second compound 10 µM, first compound 0.0949 µM) 1.3% | viability, T/C (second compound 10 µM, first compound 0.3 µM) 0.74% | viability, T/C (second compound 10 µM, first compound 0.949 µM) 1.71% | viability, T/C (second compound 10 µM, first compound 3 µM) 1.04%
inactive: viability, T/C (second compound 0.0316 µM, first compound 0.00949 µM) 98.3% | viability, T/C (second compound 0.0316 µM, first compound 0.03 µM) 83.4% | viability, T/C (second compound 0.0316 µM, first compound 0.0949 µM) 65.4% | viability, T/C (second compound 0.1 µM, first compound 0.00949 µM) 61.6% | viability, T/C (second compound 0.1 µM, first compound 0.03 µM) 60.9% | viability, T/C (second compound 0.1 µM, first compound 0.0949 µM) 13.1%
< 9.49 nM: IC50 (curve of first compound, second compound 0.316 µM) | IC50 (curve of first compound, second compound 1 µM) | IC50 (curve of first compound, second compound 3.16 µM) | IC50 (curve of first compound, second compound 10 µM)
39 nM: IC50 (curve of first compound, second compound 0.1 µM)
